Measurements from patent US10183015B2, “Heterocyclic compounds and methods of use” (Medivation Technologies LLC, priority 2015, dated 2019).
Values joined by “and” are separate entries in the source; they are usually repeats but may differ in a detail not shown here. Equal values may be shown once.

Key:
[1] = system: SREBP1C; experiment: Short-term Paigen-diet NASH mouse model: hepatic SREBP1C gene expression (RT-qPCR); format: in vivo; conditions: liver, 21 days; for DDct: SREBP1C Dct relative to vehicle mean; for Dct: SREBP1C minus 18S; for 2DDct: SREBP1C relative expression to vehicle group, normalized to 18S; for SREBP1C: raw RT-qPCR value
Method: To investigate whether Compound #37 prevents the development of pathology associated with NASH and steatosis in an acute exploratory disease model, a study was conducted using a diet-induced acute liver steatosis model in mice. As described below, in this study, C57BL/6J mice were initiated on the Paigen diet and simultaneously treated with Compound #37 (5, 20, and 40 mg/kg/day) or vehicle control (20% HPβCD 10 mL/kg/day) by oral gavage for 21 days.
After acclimation, 8-week old male C57Bl/6J mice (Charles River) weighing about 25 g were randomized in 4 groups according their body weight and treated once daily around noon by oral gavage with vehicle, or Compound #37 at various for 21 days as follows: Group 1: vehicle-20% (2-hydroxypropyl)-β-cyclodextrin (HP-β-CD) (n=10); Group 2: Compound #37, 5 mg/kg (n=10) Group 3: Compound #37, 20 mg/kg (n=10) Group 4: Compound #37, 40 mg/kg (n=10). During the treatment period, body weight and food intake (measured over 24h) were measured 3 times per week and once a week, respectively. During the acclimation, all mice were fed a standard diet (Special Diets Services RM1 (E), product no. 801492) and tap water ad libitum. After the acclimation period, mice were fed until the end of the experiment with a 60% high fat Paigen diet (60 kcal % fat, 1.25% cholesterol, and 0.5% cholate; D11061901, Research Diet) and tap water ad libitum.
(§1) Gene expression analysis. Hepatic expression levels of genes involved in lipid metabolism (FAS, SREBP1, ACC1, SCD1), cholesterol metabolism (HMG-CoAR, LDLR), SREBP proteolysis (SCAP, INSIG1), ER stress (PERK), oxidative stress (NRF2), inflammation (MCP-1), and fibrosis (collagen 1α1) were quantified by RTqPCR. Expression level was normalized to 18S gene expression and relative expression to vehicle group was calculated with the […] method.

[2] = system: SREBP; experiment: SREBP-responsive promoter luciferase reporter assay in HepG2_LSSprom cells; format: cell-based; conditions: 6 hours of treatment, medium without serum; read-out: IC50 for luciferase expression
Method: HepG2_LSSprom cells were cultured in DMEM with 10% fetal bovine serum and 1% penicillin/streptomycin for 24 hours. Cells were then treated with increasing concentrations of Compound #37 or an equal volume of DMSO in culture medium without serum. Luciferase expression was measured and compared after 6 hours of treatment.

[3] = system: diet-induced NASH obese insulin resistant mice; experiment: DIN mouse model: liver Sirius Red staining (% labeling, collagen deposition); format: in vivo; conditions: for Sirius red labeling: liver
Method: (§2) Male C57Bl/6J mice (8 weeks old) were housed in enriched ventilated cages (31×12.5×12.7 cm) throughout the experimental phase. Animals' cages litters were changed at least once a week. Animal were housed 5 per cage on inverted 12-hour light cycle (at 09:00 am lights off), 22±2° C. and 55±10% relative humidity. The acclimation period was 20 days. During the acclimation period, all mice were fed a standard diet (RM1 (E) 801492, SDS) and tap water ad libitum. After the acclimation period, mice were fed with the DIN diet (60% fat, cholesterol enriched) and fructose-enriched tap water ad libitum until the end of the experiment.
(§3) At 6 weeks of diet, mice were 4-hour fasted (09:00 am to 1:00 pm) and blood (150 μl/EDTA) was collected at 01:00 pm by retro-orbital bleeding under isoflurane anesthesia. Mice were then allocated in 2 homogenous groups (n=12/group) according to their plasma levels of ALT (average levels: 685U/L), AST (average levels: 627U/L) and HOMA-IR index (average value: 4.7), into 2 homogenous groups (see values at day 0 in Tables 15A and 15B ALT/AST and Tables 16A and 16B for HOMA-IR). Mice were then treated once daily by oral gavage with vehicle (Group 1) or Compound #37 at 20 mg/kg (Group 2) for 70 days.
Slides having a single hepatic lobe section stained with H&E and […] were digitized using a Nanozoomer from Hamamatsu. Sections were evaluated with knowledge of groups. In agreement with the unchanged hepatic triglycerides levels, oil red O staining and % labeling was not changed with Compound #37. A substantial reduction in Sirius Red labeling was also observed, leading to a 61% reduction (p<0.001 vs. vehicle) in % labeling.
To investigate whether Compound #37 improves pre-existing steatosis/NASH pathology, a study was conducted using a 16-week diet-induced NASH mouse model. In this model, mice develop steatosis that progresses with inflammation and fibrosis that mimic many of the observed pathologies in human nonalcoholic fatty liver disease (NAFLD) and NASH (Hebbard & George, 2010). […]

[4] = system: PERK; experiment: DIN mouse model: hepatic PERK gene expression; format: in vivo; conditions: liver, 20 mg/kg group
Method: as §1, §2, §3
Hepatic expression levels of genes involved in lipid (FAS, SREBP1, ACC1, SCD1), cholesterol metabolism (HMG-CoAR, LDLR), in SREBP proteolysis (SCAP, INSIG1), in ER stress (PERK), oxidative stress (NRF2), and inflammation (MCP-1) were not changed. However, expression of collagen 1α1, involved in liver fibrosis, was reduced by 66% in mice treated with Compound #37 (p<0.05 vs. vehicle).

[5] = Compound #37 5 mg/kg, group mean, n=10
[6] = Compound #37 5 mg/kg, individual animals, 5 mg/kg
[7] = Compound #37 20 mg/kg, group mean, n=6
[8] = Compound #37 20 mg/kg, individual animals, 20 mg/kg
[9] = individual animals, vs vehicle mean, 20 mg/kg

In the case of `CC(C)Cc1cc(-c2nc(-c3ccc(NS(=O)(=O)C(F)(F)F)cc3Cl)cs2)ccn1` [Compound 37, N-(3-chloro-4-(2-(2-isobutylpyridin-4-yl)thiazol-4-yl)phenyl)-1,1,1-trifluoromethanesulfonamide], the DDct [1, 5] is reported as 0.26, the DDct [1, 6] is reported as −0.21 and 0.9 and 0.06 and −0.98 and 1.46 and 1.52 and −0.09 and −0.27 and 0.17 and 0.02 and the DDct [1, 7] is reported as −0.13. The DDct [1, 8] was 0.5 and 0.38 and 0.11 and −1.36 and 0.66 and −1.08, the Dct [1, 5] was 14 and the Dct [1, 6] was 13.57 and 14.68 and 13.84 and 12.8 and 15.24 and 15.3 and 13.69 and 13.51 and 13.95 and 13.8. The Dct [1, 7] was 13.6, the Dct [1, 8] was 14.28 and 14.16 and 13.89 and 12.42 and 14.44 and 12.7 and the 2DDct [1, 5] was 0.95. For the same compound, the 2DDct [1, 6] was 1.16 and 0.54 and 0.96 and 1.98 and 0.36 and 0.35 and 1.07 and 1.21 and 0.89 and 0.99, the 2DDct [1, 7] was 1.29 and the 2DDct [1, 8] was 0.71 and 0.77 and 0.93 and 2.57 and 0.63 and 2.12. For the same compound, the SREBP1C [1, 5] was 26.3, the SREBP1C [1, 6] was 27.03 and 27.79 and 25.45 and 26.15 and 27.27 and 28.65 and 25.29 and 25.3 and 25.09 and 24.92 and the SREBP1C [1, 7] was 25.8. For the same compound, the SREBP1C [1, 8] was 27.19 and 26.45 and 26.09 and 25.45 and 25.93 and 23.96, the IC50 [2] was 2.7 µM and the “Sirius Red % labeling reduction” value ([3]; 20 mg/kg, 70 days, p<0.001 vs. vehicle) was 61%. The Sirius red labeling ([3]; 20 mg/kg group, mean, n 11) was 0.7%, the Sirius red labeling ([3]; 20 mg/kg, individual animals) was 0.5% and 0.8% (4×) and 0.6% (2×) and 1.0% and 0.9% and 0.7% (2×) and the “PERK Dct” value ([4]; individual animals, normalised to 18S, 20 mg/kg) was 14.23 and 14.41 and 16.11 and 14.89 and 14.95 and 14.18 and 14.85 and 14.3 and 15.75 and 16.07 and 12.9. For the same compound, the “PERK 2^DDct” value [4, 9] was 1.2 and 1.06 and 0.33 and 0.76 and 0.73 and 1.24 and 0.78 and 1.15 and 0.42 and 0.34 and 3.02, the “PERK DDct” value [4, 9] was −0.27 and −0.09 and 1.61 and 0.39 and 0.45 and −0.32 and 0.35 and −0.2 and 1.25 and 1.57 and −1.6 and the “PERK (Ct)” value ([4]; individual animals, 20 mg/kg) was 26.78 and 26.96 and 28.95 and 27.32 and 27.3 and 26.77 and 26.58 and 26.81 and 27.25 and 27.62 and 25.25. The “PERK 2^DDct” value ([4]; mean, n 11) was 1.00, the “PERK (Ct)” value ([4]; mean, n 11) was 27.1 and the “PERK DDct” value ([4]; mean, n 11) was 0.29. The “PERK Dct” value ([4]; mean, n 11) was 14.8.
